Reference: ChEMBL document CHEMBL5303573, “Mapping human microbiome drug metabolism by gut bacteria and their genes” (Nature, 2019)

Legend:
[1] = The drug is tested on Salmonella typhimurium strain: LT2 for biotransformation. The drug concentrations were measured before and after a 12-h incubation by liquid-chromatography-coupled mass spectrometry (LC–MS); conditions: salmonella enterica subsp. enterica, 2 µM
[2] = clostridioides difficile, 12 h, 2 µM
Description: The drug is tested on Clostridium difficile strain: 120 for biotransformation. The drug concentrations were measured before and after a 12-h incubation by liquid-chromatography-coupled mass spectrometry (LC–MS)

GDSL-like protein = molecular target: T1, GDSL-like protein (Collinsella aerofaciens, UniProt A4E8S4); assay: The drug is tested on Collinsella aerofaciens strain: ATCC25986 for biotransformation. The drug concentrations were measured before and after a 12-h incubation by liquid-chromatography-coupled mass spectrometry (LC–MS); assay type: ADME; parameters: dose 2 uM; conditions: 2 µM
T1 sequence (A4E8S4 whole entry): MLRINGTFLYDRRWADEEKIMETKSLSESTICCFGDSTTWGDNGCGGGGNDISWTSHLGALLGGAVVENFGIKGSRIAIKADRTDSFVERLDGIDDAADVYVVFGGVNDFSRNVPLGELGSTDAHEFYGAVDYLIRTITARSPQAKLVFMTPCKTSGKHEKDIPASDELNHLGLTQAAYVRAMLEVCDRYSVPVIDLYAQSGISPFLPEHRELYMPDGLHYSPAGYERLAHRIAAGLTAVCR

[3] = The drug is tested on Eubacterium biforme strain: DSM3989 for biotransformation. The drug concentrations were measured before and after a 12-h incubation by liquid-chromatography-coupled mass spectrometry (LC–MS); conditions: holdemanella biformis, 2 µM

Row | Structure (SMILES) | Bacterial Biotransformation [1] | Bacterial Biotransformation [2] | Bacterial Biotransformation (GDSL-like protein) | Bacterial Biotransformation [3]
1 | CCCC(=O)Nc1ccc(OCC(O)CNC(C)C)c(C(C)=O)c1 (configuration not stated) [ACEBUTOLOL] | Compound NOT metabolized | Compound NOT metabolized |  | 
2 | C=CCc1ccccc1OCC(O)CNC(C)C (configuration not stated) [ALPRENOLOL] | Compound NOT metabolized |  |  | 
3 | C[C@@H]1CC[C@H]2[C@@H](C)C(=O)O[C@@H]3O[C@@]4(C)CC[C@@H]1[C@]32OO4 [ARTEMISININ] |  | Compound metabolized | Compound NOT metabolized | 
4 | CC(C)NCC(O)COc1ccc(CC(N)=O)cc1 (configuration not stated) [ATENOLOL] | Compound NOT metabolized | Compound NOT metabolized |  | 
5 | CC(C)NCC(O)COc1ccc(CCOCC2CC2)cc1 (configuration not stated) [BETAXOLOL] |  | Compound NOT metabolized |  | 
6 | CC(=O)Oc1ccc(C(c2ccc(OC(C)=O)cc2)c2ccccn2)cc1 [BISACODYL] | Compound metabolized |  | Compound metabolized | 
7 | COc1ccccc1OCCNCC(O)COc1cccc2[nH]c3ccccc3c12 (configuration not stated) [CARVEDILOL] |  | Compound NOT metabolized |  | 
8 | O=C(O)COCCN1CCN(C(c2ccccc2)c2ccc(Cl)cc2)CC1 (configuration not stated) [CETIRIZINE] | Compound metabolized |  |  | Compound metabolized
9 | CN/C(=N/CCSCc1nc[nH]c1C)NC#N [CIMETIDINE] | Compound NOT metabolized | Compound NOT metabolized |  | 
10 | Clc1cccc(Cl)c1N=C1NCCN1 [CLONIDINE] | Compound NOT metabolized | Compound NOT metabolized |  | Compound NOT metabolized
11 | COC(=O)[C@H](c1ccccc1Cl)N1CCc2sccc2C1.O=S(=O)(O)O [CLOPIDOGREL BISULFATE] | Compound NOT metabolized |  |  | Compound NOT metabolized
12 | CN1CCN(C2=Nc3cc(Cl)ccc3Nc3ccccc32)CC1 [CLOZAPINE] | Compound NOT metabolized |  |  | Compound NOT metabolized
13 | CN(C)CCC=C1c2ccccc2C=Cc2ccccc21 [CYCLOBENZAPRINE] |  |  |  | Compound NOT metabolized
14 | O=P1(N(CCCl)CCCl)NCCCO1 (configuration not stated) [CYCLOPHOSPHAMIDE ANHYDROUS] | Compound NOT metabolized |  |  | Compound metabolized
15 | C#C[C@]1(O)CC[C@H]2[C@@H]3CCC4=Cc5oncc5C[C@]4(C)[C@H]3CC[C@@]21C [DANAZOL] |  |  | Compound NOT metabolized | 
16 | CC(=O)Nc1ccc(OC(C)=O)cc1 [DIACETAMATE] |  |  | Compound metabolized | 
17 | CCN(CC)C(=O)/C(C#N)=C/c1cc(O)c(O)c([N+](=O)[O-])c1 [ENTACAPONE] |  |  | Compound NOT metabolized | 
18 | c1ccc([C@H]2CN3CCSC3=N2)cc1 [LEVAMISOLE] |  | Compound metabolized |  | Compound NOT metabolized
19 | CCOC(=O)C1=C(C)NC(C)=C(C(=O)OC)C1c1cccc([N+](=O)[O-])c1 (configuration not stated) [NITRENDIPINE] |  |  | Compound NOT metabolized | 
20 | COc1ccnc(C[S+]([O-])c2nc3ccc(OC(F)F)cc3[nH]2)c1OC (configuration not stated) [PANTOPRAZOLE] |  |  | Compound NOT metabolized | 
21 | Nc1ccc(/N=N/c2ccccc2)c(N)n1 [PHENAZOPYRIDINE] |  |  | Compound NOT metabolized | 
22 | CC(=O)SCC(Cc1ccccc1)C(=O)NCC(=O)OCc1ccccc1 (configuration not stated) [RACECADOTRIL] |  |  | Compound metabolized | 
23 | CCOc1cc(CC(=O)N[C@@H](CC(C)C)c2ccccc2N2CCCCC2)ccc1C(=O)O [REPAGLINIDE] |  | Compound NOT metabolized |  | 
24 | CC(=O)OCC(=O)NCCCOc1cccc(CN2CCCCC2)c1 [ROXATIDINE ACETATE] |  |  | Compound NOT metabolized | 
25 | CCS(=O)(=O)CCn1c([N+](=O)[O-])cnc1C [TINIDAZOLE] |  |  | Compound NOT metabolized | 
